System: CHOK1 cells engineered to overexpress CXCR3
Experiment: Antibody dependent cellular cytotoxicity (ADCC) reporter assay
Assay type: cell-based
Conditions: with anti-cotinine antibody (human IgG1 Fc, S239D/I332E), Jurkat FcγRIIIa NFAT-luciferase reporter cells, incubated about 12-18 hours, average of two experimental runs, EC50 in molar (M)
Description: An antibody dependent cellular cytotoxicity (ADCC) reporter assay was conducted using the following four assay components: (i) ARM compound of Formula (I) targeting CXCR3 (concentrations ranging from 1 pM to 10 μM); (ii) anti-cotinine antibody having a heavy chain sequence of SEQ ID NO: 11 and a light chain sequence of SEQ ID NO: 12 (rabbit variable region with human IgG1 Fc domain containing DE mutation (S239D/I332E)) (concentrations ranging from 0.01 μg/mL-200 μg/mL); (iii) Target cells: CHOK1 cells engineered to overexpress CXCR3 (typically 1000-20,000 cells per well); and (iv) Reporter cells—Jurkat cells engineered to express FcγRIIIa with a reporter gene luciferase under the control of the NFAT promoter (typically 3000-75,000 cells per well). Reagents were combined in final volume of 20 μL in 384-well tissue culture treated plate. […]
Luminescence signal was measured on a microplate reader capable of measuring luminescence and signal:background was calculated by dividing the signal of a test well by the signal obtained when no compound of formula (I) was included in the assay. […]
ARMs compounds of Formula (I) were tested for ADCC activity in the above assay in two experimental runs and the results are shown in Table 3 below. […] The pEC50 value is the negative log of the EC50 value, wherein the EC50 value is half maximal effective concentration measured in molar (M). […]

Structure (SMILES)	EC50 (Cricetulus griseus, read-out: ADCC Reporter Assay pEC50 (converted)) [M]	ADCC Reporter Assay pEC50
CCOc1ccc(-n2c([C@@H](C)N(CC3CCN(C(=O)[C@H]4CC[C@H](NC(=O)CCCO[C@H]5CC[C@H](OCCNC(=O)[C@H]6CC(=O)N(C)[C@@H]6c6cccnc6)CC5)CC4)CC3)C(=O)Cc3ccc(F)c(C(F)(F)F)c3)nc3ncccc3c2=O)cc1 (racemic) [Example 2, (2S,3S)-N-(2-(((1R,4S)-4-(4-(((1S,4S)-4-(4-((N-((R)-1-(3-(4-ethoxyphenyl)-4-oxo-3,4-dihydropyrido[2,3-d]pyrimidin-2-yl)ethyl)-2-(4-fluoro-3-(trifluoromethyl)phenyl)acetamido)methyl)piperidine-1-carbonyl)cyclohexyl)amino)-4-oxobutoxy)cyclohexyl)oxy)ethyl)-1-methyl-5-oxo-2-(pyridin-3-yl)pyrrolidine-3-carboxamide]	3.98e-09	–
CCOc1ccc(-n2c([C@@H](C)N(CC3CCN(C(=O)C4CCC(NC(=O)CCCOC5CCC(OCCNC(=O)[C@H]6CC(=O)N(C)[C@@H]6c6cccnc6)CC5)CC4)CC3)C(=O)Cc3ccc(F)c(C(F)(F)F)c3)nc3ncccc3c2=O)cc1 (stereo partly drawn) [Example 1, (2S,3S)—N-(2-(((1R,4S)-4-(4-(((1R,4R)-4-(4-((N-((R)-1-(3-(4-ethoxyphenyl)-4-oxo-3,4-dihydropyrido[2,3-d]pyrimidin-2-yl)ethyl)-2-(4-fluoro-3-(trifluoromethyl)phenyl)acetamido)methyl)piperidine-1-carbonyl)cyclohexyl)amino)-4-oxobutoxy)cyclohexyl)oxy)ethyl)-1-methyl-5-oxo-2-(pyridin-3-yl)pyrrolidine-3-carboxamide]	–	7.7

From patent publication US20250051479A1, “CYTOTOXICITY TARGETING CHIMERAS FOR CXCR3-EXPRESSING CELLS” (GLAXOSMITHKLINE INTELLECTUAL PROPERTY DEVELOPMENT LIMITED, priority 2022, published 2025)
